Broadly, the EC50 is the midpoint of the concentration-response curve. The Ki is the dissociation constant of the complex between target and ligand, obtained from inhibition or displacement. High values mean weaker binding, low ones tighter binding. The Emax is the greatest response seen or fitted, relative to the assay's reference. The inhibition is the percentage by which the read-out fell short of the control. What is called IC50 is the concentration that inhibits the measured activity by half.

In experiment [1] the target is T1, Neurotensin receptor type 2 (Rattus norvegicus, UniProt Q63384).
T1 sequence (Q63384 whole entry): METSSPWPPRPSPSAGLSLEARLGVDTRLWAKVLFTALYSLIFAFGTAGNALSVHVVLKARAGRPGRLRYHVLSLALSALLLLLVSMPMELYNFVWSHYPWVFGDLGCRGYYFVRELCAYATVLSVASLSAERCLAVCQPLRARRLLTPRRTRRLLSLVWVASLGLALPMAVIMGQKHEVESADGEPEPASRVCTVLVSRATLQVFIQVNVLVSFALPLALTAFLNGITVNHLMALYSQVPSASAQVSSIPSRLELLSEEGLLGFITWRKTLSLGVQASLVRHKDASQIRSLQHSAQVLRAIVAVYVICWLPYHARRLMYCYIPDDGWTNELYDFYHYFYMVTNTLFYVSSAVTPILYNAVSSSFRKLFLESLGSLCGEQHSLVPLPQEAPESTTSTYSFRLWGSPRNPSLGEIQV
The experiment is described as follows: Agonist activity at rat neurotensin receptor type 2 expressed in CHOK1 cells assessed as increase in calcium release by FLIPR assay. In kind it is functional, cell-based, CHO-K1.

Experiment [2] has as its target T1, Neurotensin receptor type 2. The experiment is described as follows: Displacement of [[…]]NT from rat neurotensin receptor type 2 expressed in CHOK1 cells by radioligand binding assay. In kind it is cell-based, CHO-K1.
Experiment [3] has as its target T2, Neurotensin receptor type 2 (Rattus norvegicus) (UniProt Q63384).
T2 sequence (whole entry): T1 sequence (Q63384 whole entry)
The experiment is described as follows: Agonist activity at rat neurotensin receptor type 2 expressed in CHOK1 cells assessed as increase in calcium release by FLIPR assay relative to SR142948a. The class given is functional, cell-based. The conditions noted are these: CHO-K1.

Experiment [4] concerns the target Neurotensin receptor type 1 (Rattus norvegicus) (UniProt P20789). The experiment is described as follows: Agonist activity at rat neurotensin receptor type 1 expressed in CHOK1 cells assessed as increase in calcium release by FLIPR assay. The conditions noted are these: CHO-K1. The class given is functional, cell-based.
The target is the same in experiment [5]. As to the kind of experiment: Agonist activity at rat neurotensin receptor type 1 expressed in CHOK1 cells assessed as increase in calcium release at 10 uM by FLIPR assay. In kind it is functional, cell-based. The conditions noted are these: CHO-K1.
Experiment [6] addresses T2, Neurotensin receptor type 2 (Rattus norvegicus). As to the kind of experiment: Antagonist activity at rat neurotensin receptor type 2 expressed in CHOK1 cells assessed as inhibition of SR142948a-induced calcium release at 10 uM by FLIPR assay. The class given is functional, cell-based. Conditions: CHO-K1.
Experiment [7] has as its target Neurotensin receptor type 1 (Rattus norvegicus) (UniProt P20789). The experiment is described as follows: Antagonist activity at rat neurotensin receptor type 1 expressed in CHOK1 cells assessed as inhibition of calcium release at 10 uM by FLIPR assay. Conditions: CHO-K1. The class given is functional, cell-based.
Experiment [8] has as its target T2, Neurotensin receptor type 2 (Rattus norvegicus). The experiment is described as follows: Agonist activity at rat neurotensin receptor type 2 expressed in CHOK1 cells assessed as increase in calcium release at 10 uM by FLIPR assay. The class given is functional, cell-based. Conditions: CHO-K1.
Experiment [9] has as its target T1, Neurotensin receptor type 2. The experiment is described as follows: Antagonist activity at rat neurotensin receptor type 2 expressed in CHOK1 cells assessed as inhibition of SR142948a-induced calcium release by FLIPR assay. In kind it is functional, cell-based, CHO-K1.
The target in experiment [10] is Neurotensin receptor type 1 (Rattus norvegicus, UniProt P20789). The experiment is described as follows: Displacement of [[…]]NT from rat neurotensin receptor type 1 expressed in CHOK1 cells by radioligand binding assay. In kind it is cell-based, CHO-K1.
Neurotensin receptor type 1, sequence (P20789 whole entry): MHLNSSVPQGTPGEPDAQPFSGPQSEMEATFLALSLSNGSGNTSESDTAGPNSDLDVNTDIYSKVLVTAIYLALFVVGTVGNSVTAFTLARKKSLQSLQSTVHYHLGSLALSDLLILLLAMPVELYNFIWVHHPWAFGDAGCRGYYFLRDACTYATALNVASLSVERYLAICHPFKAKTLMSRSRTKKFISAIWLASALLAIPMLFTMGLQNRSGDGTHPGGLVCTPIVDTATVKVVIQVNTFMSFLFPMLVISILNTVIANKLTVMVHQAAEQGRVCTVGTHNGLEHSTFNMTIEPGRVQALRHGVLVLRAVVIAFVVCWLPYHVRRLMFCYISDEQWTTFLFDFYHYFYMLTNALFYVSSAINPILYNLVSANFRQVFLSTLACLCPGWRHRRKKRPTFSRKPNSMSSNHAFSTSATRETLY

Calls of active or inactive are those of the source. The calls are words filed in the database; no cut-off is given here.

Neurotensin receptor type 1 (Rattus norvegicus), sequence (P20789 whole entry): as above

In the case of `COc1cccc(OC)c1-c1nc(C(=O)NC2(C(=O)O)CCCCC2)nc2ccc(Cl)cc12`, the EC50 in [1] came out at 145 nM. Moreover, in experiment [2], the Ki was found to be 959 nM. In addition, the Emax in [3] is 26%. The outcome in [4] was inactive.
Turning to `O=C(O)c1cccc(NC(=S)NC(=O)C(c2ccccc2)c2ccccc2)c1`, the result in experiment [5] and in experiment [8] was inactive. Further, the inhibition result in experiment [6] and in experiment [7] was “inactive” throughout.
For `COc1cccc(OC)c1-c1nc(C(=O)N[C@H](C(=O)O)C2CCCCC2)nc2ccc(Cl)cc12`, the half-inhibitory concentration (IC50) in experiment [9] is 1070 nM. In experiment [2], this molecule came in with a Ki of 474 nM. The outcome in experiment [4] was inactive.
Regarding `COc1cccc(OC)c1-c1cc(C(=O)NC2(C(=O)O)C3CC4CC(C3)CC2C4)nn1-c1ccc(C(=O)N(C)CCCN(C)C)cc1C(C)C` (centres undefined), the inhibitory constant (Ki) stood at 2 nM in [10] and 7 nM in [2]. In addition, the EC50 in experiment [1] came out at 18 nM.
With `O=C1NC(=O)N(c2ccc(C(=O)O)cc2)C(=O)/C1=C/c1c(OCc2ccccc2)ccc2ccccc12`, the outcome in experiment [5] and in [8] was inactive. For the same molecule, the inhibition result in experiment [6] and in [7] was “inactive” each time.
For `COc1ccccc1C(=O)N/C(=C\c1ccc2c(c1)OCO2)C(=O)N[C@H](C(=O)O)C(C)C` (stereo in doubt), the result in experiment [5] and in experiment [8] was inactive. Further, the inhibition entry in [6] and in [7] was “inactive” in each case.
As to `COc1ccc(C(=O)N/C(=C\c2cccc([N+](=O)[O-])c2)C(=O)N[C@@H](CC(C)C)C(=O)O)cc1`, the result in experiment [5] and in experiment [8] was inactive. For the same molecule, the inhibition result in experiment [6] and in experiment [7] was “inactive” in each case.
On to `COc1ccc(C(=O)O)cc1NC(=S)NC(=O)C(c1ccccc1)c1ccccc1`, for which the outcome in experiment [5] and in experiment [8] was inactive. For the same molecule, the inhibition result in [6] and in experiment [7] was “inactive” throughout.
On to `O=C(O)c1cc(Nc2nc(-c3ccccc3)c3cc(Cl)ccc3n2)ccc1O`, for which the result in experiment [5] and in experiment [8] was inactive. Also, the inhibition in experiment [6] came to 20%. In [7], the inhibition entry was “inactive”.
As to `Cc1ccc(C(=O)O)cc1NC(=S)NC(=O)C(c1ccccc1)c1ccccc1`, the outcome in [5] and in experiment [8] was inactive. Moreover, the inhibition entry in experiment [6] and in [7] was “inactive” throughout.
As to `CC(C)[C@H](NC(=O)/C(=C/c1ccccc1)NC(=O)c1ccccc1)C(=O)O`, the result in [5] and in [8] was inactive. For the same molecule, the inhibition result in experiment [6] and in [7] was “inactive” in each case.
Consider `Cc1c(NC(=S)NC(=O)C(c2ccccc2)c2ccccc2)cccc1C(=O)O`, for which the outcome in experiment [5] and in experiment [8] was inactive. In addition, the inhibition result in experiment [6] and in experiment [7] was “inactive” each time.
Take `O=C(O)c1ccc(NC(=S)NC(=O)C(c2ccccc2)c2ccccc2)cc1Cl`: the result in experiment [5] and in [8] was inactive. Further, the inhibition result in experiment [6] and in experiment [7] was “inactive” throughout.
In the case of `COc1ccc(C(=O)N/C(=C\c2ccccc2)C(=O)N[C@H](C(=O)O)C(C)C)cc1`, the result in experiment [5] and in experiment [8] was inactive. Further, the inhibition entry in [6] and in experiment [7] was “inactive” in each case.
